Results on 13 molecules are retold here after patent publication US20240287070A1, “FUSED HETEROCYCLIC DERIVATIVES” (Janssen Sciences Ireland Unlimited Company, priority 2021, published 2024).

Structures are written as SMILES. Where only a bound is given, the exact number is not on record here.

Usually EC50 stands for the concentration that produces a half-maximal response. For orientation: CC50 means the concentration giving 50% cytotoxicity. High values mean lower toxicity to the cells, low ones greater toxicity to the cells.

In series [1] the test system is HBV (HepG2.117 cell line, inducibly HBV producing). Description: Anti-HBV activity, intracellular HBV DNA by real-time PCR in HepG2.117 cell line. The format is cell-based, hepatitis B virus. The settings on record: HepG2.117 cells, 3 days of treatment. The method in brief: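 First, HBV replication is induced in HepG2.117 cells by doxycycline absence. Next, serially diluted compound is added for 3 days. Finally, intracellular HBV DNA is quantified by HBV-specific real-time PCR.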

Another series deals with HepG2 or HepG2.117 cells. Description: Cytotoxicity, ATPlite Luminescence Assay. The format is cell-based, human. The settings on record: 3-days incubation unless marked with *. The method in brief: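 HepG2/HepG2.117; compound exposure 3–4 d; viability readout = ATPlite luminescence.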
(ATP-based viability assays read luminescence as a measure of living cells.)

Series [2] can be described thus: Human liver microsome stability. Format: in vitro ADME. The settings on record: pooled human liver microsomes 0.5 mg/mL, 1 μM compound, NADPH 1 mM, 37° C., 0-60 min. The gist of the method:
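Half-life came from elimination rate constant (negative slope of ln compound/internal standard area ratio over time), measured by cassette LC-MS after acetonitrile quench. Human liver microsome reactions, one replicate per compound, were initiated with NADPH (1 mM final) and sampled at six points up to 60 min.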
A general note: Liver microsomes are a subcellular fraction often used to study metabolism.

In the case of `CC(c1cnn(C2CC2)c(=O)c1)N1C[C@@H](C)n2nc3c(c2C1=O)CN(C(=O)c1ccc(Cl)c(C(F)(F)F)c1)[C@H](C)C3` (single isomer, unassigned) [Compound 54B, (3R,7R)-2-(4-chloro-3-(trifluoromethyl)benzoyl)-9-((S*)-1-(1-cyclopropyl-6-oxo-1,6-dihydropyridazin-4-yl)ethyl)-3,7-dimethyl-1,2,3,4,8,9-hexahydropyrido[4′,3′: 3,4]pyrazolo[1,5-a]pyrazin-10(7H)-one], it took 0.01 µM to reach a half-maximal effect in series [1] (EC50). Moreover, the CC50 in the series with HepG2 or HepG2.117 cells was > 50 µM. For the same molecule, the “HLM Metabolism t1/2” value in series [2] was found to be 1.95 h.

The molecule `CC(c1ccc(=O)n(C)n1)N1C[C@@H](C)n2nc3c(c2C1=O)CN(C(=O)c1ccc(Cl)c(Cl)c1)[C@H](C)C3` (single isomer, unassigned) [Compound 55B, (3R,7R)-2-(3,4-dichlorobenzoyl)-3,7-dimethyl-9-((S*)-1-(1-methyl-6-oxo-1,6-dihydropyridazin-3-yl)ethyl)-1,2,3,4,8,9-hexahydropyrido[4′,3′:3,4]pyrazolo[1,5-a]pyrazin-10(7H)-one] yielded an EC50 in series [1] of 0.06 µM. Besides, the CC50 in the series on HepG2 or HepG2.117 cells is > 50 µM. Further, in series [2], the “HLM Metabolism t1/2” value was >3 h.

In the case of `CC(c1cn(C2CC2)c(=O)cn1)N1C[C@@H](C)n2nc3c(c2C1=O)CN(C(=O)c1ccc(Cl)c(Cl)c1)[C@H](C)C3` (single isomer, unassigned) [Compound 56B, (3R,7R)-9-((S*)-1-(4-cyclopropyl-5-oxo-4,5-dihydropyrazin-2-yl)ethyl)-2-(3,4-dichlorobenzoyl)-3,7-dimethyl-1,2,3,4,8,9-hexahydropyrido[4′,3′:3,4]pyrazolo[1,5-a]pyrazin-10(7H)-one], in series [1], the EC50 came out at 0.084 µM. In the series with HepG2 or HepG2.117 cells, the CC50 was > 50 µM. Also, the “HLM Metabolism t1/2” value in series [2] is 1.53 h.

On to `CC(c1ccc(C(C)(C)O)nc1)N1C[C@@H](C)n2nc3c(c2C1=O)CN(C(=O)c1cc(Cl)c(Cl)cn1)[C@H](C)C3` (single isomer, unassigned) [Compound 57B, (3R,7R)-2-(4,5-dichloropicolinoyl)-9-((S*)-1-(6-(2-hydroxypropan-2-yl)pyridin-3-yl)ethyl)-3,7-dimethyl-1,2,3,4,8,9-hexahydropyrido[4′,3′:3,4]pyrazolo[1,5-a]pyrazin-10(7H)-one], for which a half-maximal effect in series [1] (EC50) was put at 0.65 µM. Further, the cytotoxic concentration (CC50) in the series on HepG2 or HepG2.117 cells was > 50 µM. In addition, in series [2], the “HLM Metabolism t1/2” value is 1.68 h.

For `CC(c1ccc(C(C)(C)O)nc1)N1C[C@@H](C)n2nc3c(c2C1=O)CN(C(=O)c1cc(C(F)(F)F)c(Cl)cn1)[C@H](C)C3` (single isomer, unassigned) [Compound 58B, (3R,7R)-2-(5-chloro-4-(trifluoromethyl)picolinoyl)-9-((S*)-1-(6-(2-hydroxypropan-2-yl)pyridin-3-yl)ethyl)-3,7-dimethyl-1,2,3,4,8,9-hexahydropyrido[4′,3′:3,4]pyrazolo[1,5-a]pyrazin-10(7H)-one], the midpoint of the response in series [1], the EC50, lay at 0.19 µM. In the series with HepG2 or HepG2.117 cells, the cytotoxic concentration (CC50) is > 50 µM. In series [2], the “HLM Metabolism t1/2” value was >3 h.

Turning to `CC(c1ccc(C(C)(C)O)nc1)N1C[C@@H](C)n2nc3c(c2C1=O)CN(C(=O)c1ccc(Cl)c(F)c1)[C@H](C)C3` (single isomer, unassigned) [Compound 59B, (3R,7R)-2-(4-chloro-3-fluorobenzoyl)-9-((S*)-1-(6-(2-hydroxypropan-2-yl)pyridin-3-yl)ethyl)-3,7-dimethyl-1,2,3,4,8,9-hexahydropyrido[4′,3′:3,4]pyrazolo[1,5-a]pyrazin-10(7H)-one], in series [1], the EC50 worked out at 0.055 µM. Further, the 50% cytotoxic concentration (CC50) with HepG2 or HepG2.117 cells is > 50 µM. Besides, the “HLM Metabolism t1/2” value in series [2] was >3 h.

The molecule `CC(c1ccc(C(C)(C)O)nc1)N1C[C@@H](C)n2nc3c(c2C1=O)CN(C(=O)c1cc(F)c(Cl)c(F)c1)[C@H](C)C3` (single isomer, unassigned) [Compound 60B, (3R,7R)-2-(4-chloro-3,5-difluorobenzoyl)-9-((S*)-1-(6-(2-hydroxypropan-2-yl)pyridin-3-yl)ethyl)-3,7-dimethyl-1,2,3,4,8,9-hexahydropyrido[4′,3′:3,4]pyrazolo[1,5-a]pyrazin-10(7H)-one] gave an EC50 in series [1] of 0.052 µM. In the series with HepG2 or HepG2.117 cells, the CC50 was > 50 µM. Moreover, the “HLM Metabolism t1/2” value in series [2] was >3 h.

As for `CC(c1ccc(C(C)(C)O)nc1)N1C[C@@H](C)n2nc3c(c2C1=O)CN(C(=O)c1ccc(Cl)c(F)c1F)[C@H](C)C3` (single isomer, unassigned) [Compound 61B, (3R,7R)-2-(4-chloro-2,3-difluorobenzoyl)-9-((S*)-1-(6-(2-hydroxypropan-2-yl)pyridin-3-yl)ethyl)-3,7-dimethyl-1,2,3,4,8,9-hexahydropyrido[4′,3′:3,4]pyrazolo[1,5-a]pyrazin-10(7H)-one], the EC50 in series [1] is 0.3 µM. For the same molecule, in the series on HepG2 or HepG2.117 cells, the CC50 is > 50 µM. Also, the “HLM Metabolism t1/2” value in series [2] was determined as 2.25 h.

The molecule `CC(c1ccc(C(C)(C)O)nc1)N1C[C@@H](C)n2nc3c(c2C1=O)CN(C(=O)c1ccc(Cl)c(C(F)(F)F)n1)[C@H](C)C3` (single isomer, unassigned) [Compound 62B, (3R,7R)-2-(5-chloro-6-(trifluoromethyl)picolinoyl)-9-((S*)-1-(6-(2-hydroxypropan-2-yl)pyridin-3-yl)ethyl)-3,7-dimethyl-1,2,3,4,8,9-hexahydropyrido[4′,3′:3,4]pyrazolo[1,5-a]pyrazin-10(7H)-one] came in with an EC50 in series [1] of 0.068 µM. The cytotoxic concentration (CC50) in the series on HepG2 or HepG2.117 cells is > 50 µM. Besides, the “HLM Metabolism t1/2” value in series [2] was found to be 2.07 h.

The molecule `CC(c1ccc(C(C)(C)O)nc1)N1C[C@@H](C)n2nc3c(c2C1=O)CN(C(=O)c1ccc(Cl)c(C#N)c1)[C@H](C)C3` (single isomer, unassigned) [Compound 63B, 2-chloro-5-((3R,7R)-9-((S*)-1-(6-(2-hydroxypropan-2-yl)pyridin-3-yl)ethyl)-3,7-dimethyl-10-oxo-1,2,3,4,7,8,9,10-octahydropyrido[4′,3′:3,4]pyrazolo[1,5-a]pyrazine-2-carbonyl)benzonitrile] displayed an EC50 in series [1] of 0.052 µM. Also, the CC50 with HepG2 or HepG2.117 cells was > 50 µM. The “HLM Metabolism t1/2” value in series [2] was >3 h.

As to `CC(c1ccn(CC(C)(C)O)c(=O)c1)N1C[C@@H](C)n2nc3c(c2C1=O)CN(C(=O)c1ccc(Cl)c(C(F)(F)F)c1)[C@H](C)C3` (single isomer, unassigned) [Compound 64B, (3R,7R)-2-(4-chloro-3-(trifluoromethyl)benzoyl)-9-((S*)-1-(1-(2-hydroxy-2-methylpropyl)-2-oxo-1,2-dihydropyridin-4-yl)ethyl)-3,7-dimethyl-1,2,3,4,8,9-hexahydropyrido[4′,3′:3,4]pyrazolo[1,5-a]pyrazin-10(7H)-one], the half-maximal effective concentration (EC50) in series [1] was determined as 0.085 µM. For the same molecule, the half-maximal cytotoxic concentration (CC50) in the series on HepG2 or HepG2.117 cells is > 50 µM. The “HLM Metabolism t1/2” value in series [2] was >3 h.

Turning to `CC(c1ccccn1)N1C[C@@H](C)n2nc3c(c2C1=O)CN(C(=O)c1ccc(Cl)c(Cl)c1)[C@H](C)C3` (single isomer, unassigned) [Compound 65B, (3R,7R)-2-(3,4-dichlorobenzoyl)-3,7-dimethyl-9-((S*)-1-(pyridin-2-yl)ethyl)-1,2,3,4,8,9-hexahydropyrido[4′,3′:3,4]pyrazolo[1,5-a]pyrazin-10(7H)-one], the EC50 in series [1] came out at 0.046 µM. Further, the CC50 in the series on HepG2 or HepG2.117 cells is > 50 µM. The “HLM Metabolism t1/2” value in series [2] is 2.02 h.

Turning to `CC(c1ccc(C#N)cc1)N1C[C@@H](C)n2nc3c(c2C1=O)CN(C(=O)c1ccc(Cl)c(Cl)c1)[C@H](C)C3` (single isomer, unassigned) [Compound 66B, 4-((S*)-1-((3R,7R)-2-(3,4-dichlorobenzoyl)-3,7-dimethyl-10-oxo-1,3,4,7,8,10-hexahydropyrido[4′,3′:3,4]pyrazolo[1,5-a]pyrazin-9(2H)-yl)ethyl)benzonitrile], in series [1], the EC50 was found to be 0.017 µM. In addition, in the series with HepG2 or HepG2.117 cells, the CC50 amounted to 19.1 µM. For the same molecule, in series [2], the “HLM Metabolism t1/2” value is >3 h.
